Measurements: US20050031670A1, “Weight reduction or weight controlling composition” (priority 2001, published 2005)
Structures can show the parent of a compound that is named as a salt.

Legend:
Obese patients (BMI≧30) [1] = test: Weight loss in obese patients given bupropion plus low calorie nutritional beverage (Example 3, invention); type: in vivo, human; conditions: 600 Kcal deficit diet, end of 6 months
Protocol: Example 3 (Invention): Obese patients (BMI≧30) were given 300 mg (N=110) or 400 mg (N=105) of bupropion and a low calorie, nutritional beverage (Slim Fast™, 11.5 oz.) for two meals per day for 6 months to achieve a 600 Kcal deficit diet. That is, each patient was given 150 or 200 mg of bupropion HCL sustained release, respectively, in a nutritional beverage (a food component of the invention) twice a day. At the end of the end of 6 months, the average weight loss was 7.2 kg and 10.1 kg for the 300 mg and 400 mg groups, respectively.

Obese patients (BMI≧30) [2] = test: Weight loss in obese patients given bupropion without food component or dietary intervention (Example 2, comparative); type: in vivo, human; conditions: 300 mg bupropion (150 mg twice a day), no food component nor dietary counseling
Protocol: Example 2 (Comparative): An analysis was conducted of obese patients (BMI≧30) who were given 300 mg of bupropion (150 mg twice a day) in the absence of the food component of the invention nor any other dietary counseling or intervention. Weight loss was negligible, the average weight loss per patient in the 300 mg study was 2.4 Kg after 12 months.

Row | Structure (SMILES) | average weight loss (Obese patients (BMI≧30) [1]; 300 mg group (150 mg twice a day) in Slim Fast 11.5 oz for two meals per day) | average weight loss (Obese patients (BMI≧30) [1]; 400 mg group (200 mg twice a day) in Slim Fast 11.5 oz for two meals per day) | Weight loss (in words) (Obese patients (BMI≧30) [2]) | average weight loss per patient (Obese patients (BMI≧30) [2]; after 12 months)
1 | CC(NC(C)(C)C)C(=O)c1cccc(Cl)c1 (single isomer, unassigned; (+)) [bupropion HCL sustained release, (+)-2-(tert-butylamino)-3′-chloropropiophenome hydrochloride] | 7.2 kg | 10.1 kg | – | –
2 | CC(NC(C)(C)C)C(=O)c1cccc(Cl)c1 (racemic) [bupropion, (±)-1-(3-chlorophenyl)-2-[(1,1-dimethyl)amino]-1-propanone hydrochloride] | – | – | negligible | 2.4 kg
